Test results as given in US12583858B2 (Genentech, Inc., priority 2015, dated 2026).
Like-named read-outs stand apart in the source and are kept apart here.

Columns and labels:
IDO = target: T1, IDO (Homo sapiens, UniProt P14902); experiment: IDO cell assay (NFK GreenScreen, A172+IFNg cells); type: cell-based; details: A172 cells + 100 ng/ml IFNγ (high IDO expressing), 100 uM tryptophan, 24 hours; TDO selectivity table; read-out: IDO cell Fluor EC50
T1 construct: selective against A172+IFNg cells (high IDO expressing cells)
T1 sequence (P14902 whole entry): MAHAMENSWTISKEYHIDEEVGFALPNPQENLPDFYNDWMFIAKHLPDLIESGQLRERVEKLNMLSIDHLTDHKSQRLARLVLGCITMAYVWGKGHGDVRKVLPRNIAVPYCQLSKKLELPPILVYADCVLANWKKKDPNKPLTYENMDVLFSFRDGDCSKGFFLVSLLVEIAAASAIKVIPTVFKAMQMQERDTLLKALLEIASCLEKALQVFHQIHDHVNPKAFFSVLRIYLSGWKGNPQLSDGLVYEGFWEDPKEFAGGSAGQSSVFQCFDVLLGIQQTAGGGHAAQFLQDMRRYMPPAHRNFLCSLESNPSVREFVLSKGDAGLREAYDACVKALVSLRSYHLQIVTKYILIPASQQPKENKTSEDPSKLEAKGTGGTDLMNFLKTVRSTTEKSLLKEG
Experimental: Cells are counted on a Vi-Cell (Beckman Coulter). […] The final DMSO concentration is 0.5%.
Compounds of the invention were tested for selectivity against TDO over IDO. The cell based assay described above was used to test for TDO and IDO activity.

TDO2 = target: T2, TDO2 (Homo sapiens, UniProt P48775); experiment: TDO2 cell assay (NFK GreenScreen, SW48 cells); type: cell-based; details: SW48 cells (high TDO expressing)
T2 construct: decreased levels of NFK in SW48 cells (high TDO expressing cells)
T2 sequence (P48775 whole entry): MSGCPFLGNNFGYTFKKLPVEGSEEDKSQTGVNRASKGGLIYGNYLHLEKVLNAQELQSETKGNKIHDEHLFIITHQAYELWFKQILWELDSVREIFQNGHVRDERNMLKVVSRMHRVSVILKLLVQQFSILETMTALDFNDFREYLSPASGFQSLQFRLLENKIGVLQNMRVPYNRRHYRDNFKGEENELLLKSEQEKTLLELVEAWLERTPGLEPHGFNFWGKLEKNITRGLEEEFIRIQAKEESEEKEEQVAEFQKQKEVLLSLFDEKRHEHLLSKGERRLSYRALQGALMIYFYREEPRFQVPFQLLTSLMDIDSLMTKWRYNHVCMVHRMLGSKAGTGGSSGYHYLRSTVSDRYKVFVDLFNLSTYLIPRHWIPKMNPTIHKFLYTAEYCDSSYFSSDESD

[1] = 200 uM tryptophan, 24 hours, Table 3, read-out: TDO2 Cell Fluor EC50
[2] = TDO selectivity table, read-out: TDO2 cell Fluor EC50

| SMILES | EC50 (IDO) | EC50 (TDO2; [1]) | EC50 (TDO2; [2]) |
| --- | --- | --- | --- |
| NC(=O)c1ccc2c(c1)C(O)C(C1c3ccccc3-c3cncn31)CC2 (single isomer, unassigned) [Example 122a] | 2600 nM | 35 nM | 35 nM |
| Cn1cc2c(n1)CCC(C1c3ccccc3-c3cncn31)C2O (single isomer, unassigned) [Example 130d] | 1800 nM | 87 nM | 87 nM |
| NC(=O)c1nc2c(s1)CCC(C1c3ccccc3-c3cncn31)C2O (single isomer, unassigned) [Example 149b] | 2100 nM | 55 nM | 55 nM |
| OC1c2[nH]ncc2CCC1C1c2ccccc2-c2cncn21 (single isomer, unassigned) [Example 157g] | 8000 nM | 42 nM | 42 nM |
| O[C@@H]1CC[C@H]1[C@H]1c2ccccc2-c2cncn21 [Example 01d, (1R,2S)-2-((S)-5H-imidazo[5,1-a]isoindol-5-yl)cyclobutan-1-ol] | 2400 nM | 37 nM | 37 nM |
| O[C@@H]1c2cncn2CC[C@H]1[C@H]1c2ccccc2-c2cncn21 [Example 07h, (7S,8S)-7-((S)-5H-imidazo[5,1-a]isoindol-5-yl)-5,6,7,8-tetrahydroimidazo[1,5-a]pyridin-8-ol] | > 25000 nM | 860 nM | 860 nM |
| CCS(=O)(=O)N1CC[C@@H]([C@H]2c3ccccc3-c3cncn32)[C@H](O)C1 [Example 16a, (3S,4S)-1-(ethylsulfonyl)-4-((S)-5H-imidazo[5,1-a]isoindol-5-yl)piperidin-3-ol] | 1200 nM | 110 nM | 110 nM |
| CC1(C)C[C@@H](O)[C@@H]1[C@H]1c2ccccc2-c2cncn21 [Example 22b, (1R,2S)-2-((S)-5H-imidazo[5,1-a]isoindol-5-yl)-3,3-dimethylcyclobutan-1-ol] | 2000 nM | 16 nM | 16 nM |
| C[C@H](O)[C@H]1c2ccccc2-c2cncn21 [Example 42c, (S)-1-((R)-5H-imidazo[5,1-a]isoindol-5-yl)ethan-1-ol] | 5000 nM | 250 nM | 250 nM |
| O[C@@H]1c2ccnn2CC[C@H]1[C@H]1c2ccccc2-c2cncn21 [Example 56a, (4S,5S)-5-((S)-5H-imidazo[5,1-a]isoindol-5-yl)-4,5,6,7-tetrahydropyrazolo[1,5-a]pyridin-4-ol] | 4500 nM | 150 nM | 150 nM |
| NC(=O)c1ccc2c(c1)CC[C@@H]([C@H]1c3ccccc3-c3cncn31)[C@@H]2O [Example 60e, (5S,6S)-5-hydroxy-6-((S)-5H-imidazo[5,1-a]isoindol-5-yl)-5,6,7,8-tetrahydronaphthalene-2-carboxamide] | 1400 nM | 35 nM | 35 nM |
